The source made the active and inactive calls. No cut-off for these calls is given here.
Assays:
Staphylococcus aureus = assay: Antimicrobial activity against Staphylococcus aureus at 100 ug/disk; format: functional, organism-based
Bacillus subtilis = assay: Antimicrobial activity against Bacillus subtilis at 100 ug/disk; format: functional, organism-based

| Structure (SMILES) | Activity (Staphylococcus aureus) | Activity (Bacillus subtilis) |
| --- | --- | --- |
| COc1c(Br)cc(C/C(=N\O)C(=O)NCCCOc2ccc(CCN)cc2Br)cc1Br | Active | Active |
| COC1=C(Br)[C@H](O)[C@@]2(C=C1Br)CC(C(=O)NCCCOc1ccc(CCN)cc1Br)=NO2 | Active | Active |

Reference: ChEMBL document CHEMBL1150194, “Two new brominated tyrosine derivatives from the sponge Druinella (= Psammaplysilla) purpurea” (J Nat Prod, 1991)
